Source: patent US20070191450A1, “Use of Benzo-Heteroaryl Sulfamide Derivatives for the Treatment of Mania and Bipolar Disorder” (priority 2006, published 2007)

Key:
[1] = system: hippocampal kindled seizures; details: background statement; cited from earlier work
[2] = system: amygdala kindled seizures; details: i.p., cited from earlier work
[3] = system: LTG-resistant amygdala kindled seizures; details: 5 mg/kg, i.p., q.d.; cited from earlier work
[4] = system: dominant rats; experiment: Dominant-Submissive assay: Reduction of Dominant Behavior Model (RDBM); format: in vivo, rat; details: for treatment time after which dominant behavior was significantly reduced: historical data, FIG. 2, i.p.: lithium 100 mg/kg, carbamazepine 20 mg/kg, VPA 30 mg/kg
Description: Dominance and submissiveness, defined in a competition test and measured as the relative success of two food-restricted rats to gain access to a feeder, form a behavioral paradigm—the Dominant Submissive Relationship (DSR). This paradigm results in two models which are predictive of ability of test compounds (drugs) to treat mood disorders.
Test compounds are evaluated for either their ability to inhibit the dominant behavior of rats taking food at the expense of an opponent (reduction of dominant behavior model or RDBM) and thus their potential as treatments for mania; or for their ability to increase the competitive behavior of submissive rats losing such encounters (reduction of submissive behavior model or RSBM) and thus their potential as treatments for depression; (Malatynska, E., and Knapp, R. J., Neuroscience and Biobehavioral Review, 29 (2005) 715-737).
The Reduction of Dominant Behavior Model (RDBM) test, wherein the dominant animals are treated with test compound, is predictive of the ability of the test compound to treat mani. This model was applied to Compound #1 of the present invention, according to the following procedure.
(§1) Male Sprague Dawley rats (140 to 160 g) from Charles River Laboratories Wilmington, Mass. were used in this assay. Shipments of rats were received at two-week intervals. Each shipment went through five-day quarantine, one-week acclimation period, and one-week selection process, followed by five-weeks of drug or vehicle treatment to those pairs selected.
(§2) Rats were housed four per cage. Access to food was restricted to one hour per day after testing on Monday through Thursday. After testing on Friday, rats had free access to food until being fasted again on Sunday. At no time were the rats deprived of water. The food deprivation periods used had little effect on weight gain as the average weight of rats was about 300 g at the end of the study. At the conclusion of experiment rats were sacrificed by decapitation, the trunk blood and brains were collected for in vitro experiments and drug concentration measurements.
(§3) The basic testing apparatus consisted of two chambers connected with a tunnel only large enough to allow one rat to pass through at a time. On the floor, at the mid-point of the tunnel was a container of sweetened milk. […] During the five-minute daily sessions, time spent in the feeder zone by each rat was recorded by the video tracking software and saved into a text file.
(§4) The test began with a random assignment of rats into pairs. […] The time spent in the feeder zone by each animal was recorded. […] Finally, there must have been no “reversals” during the pair selection week where the putative submissive rat out-scored its dominant partner on isolated occasions. […]

[5] = Median toxic dose (TD50), i.p., listed with the Rat Hippocampal Kindling Test; details: Sprague-Dawley, in vivo, ip, Table 4 dose column
[6] = system: hippocampal kindled seizures; experiment: Rat Hippocampal Kindling Model (Interruption of Kindled State); format: in vivo; details: for ED50: Rattus norvegicus, ip, read-out: ED50 = median therapeutic dose; for After-Discharge Duration (% of control) / Mean Seizure Score: i.p., line of the ED50 dose; for effect on seizure activity: reference drugs
Description: In the present rapid hippocampal kindling model adult male Sprague-Dawley rats (300-400 g) were surgically implanted with bipolar electrodes placed in the hippocampus. […] One week later, the rats received 2-3 supra-threshold stimulations delivered every 30 min before compound treatment to ensure stability of the behavioral seizure stage and after-discharge duration. Fifteen minutes after the last stimulation, a single dose of vehicle or test compound was administered i.p (intraperitoneally). After 15 min, each rat was then stimulated every 30 min for 3 to 4 h. After each stimulation, individual seizure scores and after-discharge durations were recorded. The group mean±SEM were calculated for each parameter. Eight rats per dose and a minimum of four doses were used to establish an ED50 value. Efficacy was measured as the ability of a compound to modify the seizure score (severity of spread) and after-discharge duration (ADD; excitability) of the generalized seizures.
Thus, according to the theories presented in current literature (Ghaemi, S. N., Boiman, E. E., and Goodwin, F. K., Soc. of Bio. Psychiatry, (1999), vol. 45, pp 137-144; Stoll, A. L., and Severus, W. E., Harvard Rev. Psychiatry, July/August (1996), Vol. 4, No. 2, pp 77-89) a decrease in seizure score and/or ADD may also be predictive of the ability of a test compound to treat the cycling associated with bipolar disorder.

[7] = system: LTG-resistant amygdala kindled seizures; experiment: Lamotrigine Resistant Amygdala Kindled Rat Model (Interruption of Kindled State); format: in vivo; details: 100 mg/kg, i.p.
Description: Amygdala kindling is less severe than hippocampal kindling, such that many AEDs are effective against amygdala kindled seizures, but are ineffective against hippocampal kindled seizures.
In the LTG-resistant amygdala kindling model, rats were dosed with LTG (5 mg/kg, i.p., q.d.) during the acquisition phase of kindling. […] Once kindled (supra-threshold stimulation of 150 μA biphasic 60 Hz current pulse for 1 second; ˜2 weeks), rats were re-challenged with a high dose of LTG (45 mg/kg, i.p.) one week later to insure resistance. After a 3-4 day wash out period, rats received 2-3 supra-threshold stimulations delivered every 30 min before compound treatment to ensure stability of the behavioral seizure stage and after-discharge duration. Fifteen minutes after the last stimulation, a single dose of vehicle or test compound was administered i.p. After 15 min, each rat was then stimulated every 30 min for 3 to 4 h. After each stimulation, individual seizure scores and after-discharge durations were recorded. The group mean±SEM was calculated for each parameter.

[8] = system: submissive rats; experiment: Dominant-Submissive assay: Reduction of Submissive Behavior Model (RSBM); format: in vivo, rat
Description: The Reduction of Submissive Behavior Model (RSBM) test, wherein the submissive animals are treated with test compound, is predictive of the ability of the test compound to treat depression. This model was applied to Compound #1 of the present invention, according to the following procedure.
as §1, §2, §3, §4
Significant differences between time spent on the feeder by dominant and submissive rats were determined by ANOVA using GraphPad Prism software (GraphPad Software, Inc. San Diego, Calif.) followed by a two-tailed t-test (P<0.05). […]

[9] = system: amygdala kindled seizures; experiment: Amygdala Kindling Assay (Kindling Prevention); format: in vivo, rat

Row | SMILES | TD50 [5] [mg/kg] | ED50 [6] [mg/kg] | After-Discharge Duration (% of control) [6] | Mean Seizure Score [6] | effect on seizure activity [6] | other results
1 | Nc1nnc(-c2cccc(Cl)c2Cl)c(N)n1 [LTG, lamotrigine] | – | – | – | – | – | protection against hippocampal kindled seizures [1]: unable to protect against hippocampal kindled seizures; ED50, amygdala kindled seizures ([2]; Cl=4-50 mg/kg): 25 mg/kg; ADD reduced by [2]: 62%; amygdala kindled seizure score [2]: ~2; effect on kindling during acquisition phase [3]: no effect on kindling itself
2 | CCCC(CCC)C(=O)[O-].[Na+] [VPA, sodium valproate] | – | – | – | – | – | treatment time after which dominant behavior was significantly reduced [4]: 1 weeks
3 | O=C1NC(=O)C(c2ccccc2)(c2ccccc2)N1 [Phenytoin] | 15 | 150 | 209 ± 43% of control | 4.3 ± 0.3 | suppressed seizure activity, but at doses associated with toxicity | –
4 | NC(=O)N1c2ccccc2C=Cc2ccccc21 [Carbamazepine, carbamazepine] | 26 | 50 | 72 ± 13% of control | 2.3 ± 0.6 | suppressed seizure activity, but at doses associated with toxicity | treatment time after which dominant behavior was significantly reduced [4]: 3 weeks
5 | CCCC(CCC)C(=O)O [Valproic acid] | 316 | 350 | 3 ± 1.4% of control | 0.3 ± 0.3 | suppressed seizure activity, but at doses associated with toxicity | dose giving protection similar to Compound #1 (toxic doses) ([6]; rat, in vivo): > 300 mg/kg
6 | NS(=O)(=O)NCc1csc2ccccc12 [Compound #1, N-(benzo[b]thien-3-ylmethyl)-sulfamide] | 100 | – | – | – | – | rats protected ([7]; n=11): Five out of eleven; seizure score after treatment ([7]; reduced from a 5): 3.1; treatment time after which reduction of dominant behavior was statistically significant ([4]; 1.25 mg/kg p.o. BID, p<0.05): 2 weeks; reduction of dominant behavior (dominance level) ([4]; p.o. BID 1.25, 6, 30, 60 mg/kg, FIG. 1): reduced dominant behavior in a dose-dependent manner; treatment time after which reduction of submissive behavior was statistically significant ([8]; 30 mg/kg p.o. twice a day, p<0.05): 5 weeks; treatment time after which reduction of submissive behavior was statistically significant ([8]; 60 mg/kg p.o. twice a day, p<0.01): 17 days; reduction of submissive behavior (antidepressant) ([8]; p.o. twice a day for 5 weeks, 6, 30, 60 mg/kg): reduced submissive behavior (antidepressant) in a dose-dependent manner; seizure score at the conclusion of the drug- and stimulus-free period versus vehicle ([9]; 100 mg/kg i.p. during acquisition, re-challenged in the absence of drug): remained significantly lower; acquisition of the fully generalized kindled seizure ([9]; 100 mg/kg i.p., FIG. 4): prevented the acquisition of the fully generalized kindled seizure
7 | CCC1(C)CC(=O)NC1=O (centres unmarked) [Ethosuximide] | 189 | 250 | 78 ± 13% of control | 5 ± 0 | ineffective | –
